The source of these data is US20230148599A1, “FUNGICIDAL MIXTURES CONTAINING PYRAZOLE DERIVATIVES” (FMC Corporation, priority 2020, published 2023).

Each structure is given as a SMILES string.

Common to all, as to assay type: in vivo
Common to all, as to details: 50 ppm, 100 = 100% disease control, 0 = no control

The test system of one assay is Septoria tritici. Kind of assay: Test A: wheat leaf blotch, preventive spray on wheat seedlings. In short, it runs like this: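 Preventive test: one day after spraying seedlings to run-off (concentrations in ppm; acetone/water, 250 ppm PEG400), Septoria tritici spores applied. Scored after 48 h humid incubation at 24 °C plus 17 days at 20 °C, as percent disease control versus untreated controls (100 = full control).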

Assay [1] relates to Puccinia recondita f. sp. tritici. The experiment in a line: Test B: wheat leaf rust, preventive spray on wheat seedlings. In short, it runs like this:
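Preventive test: compound in acetone/water 50/50 with 250 ppm PEG400 was sprayed onto wheat seedlings one day before inoculation with leaf rust spores. After 24 h in saturated air and 7 days in a growth chamber, both at 20 °C, disease control was scored from 0 to 100 against controls.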

Assay [2] concerns Blumeria graminis f. sp. tritici. Kind of assay: Test C: wheat powdery mildew, preventive spray on wheat seedlings. In short, it runs like this:
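Preventive test: inoculation with spore dust came one day after spraying seedlings to run-off with ppm suspensions in acetone/water (50/50) plus 250 ppm PEG400 surfactant. Visual ratings after 8 days' incubation at 20° C give percent disease control relative to controls.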

The subject of the next assay is Phakopsora pachyrhizi. Kind of assay: Test D: Asian soybean rust, preventive spray on soybean seedlings. In short, it runs like this:
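Compounds in acetone/water (50/50) with 250 ppm PEG400, dosed in ppm, sprayed to run-off on soybean seedlings; inoculated with P. pachyrhizi spores next day. Held 24 h at 22 °C in saturated air, then 8 days at 22 °C; visual rating of disease control, 0–100, relative to untreated controls.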

For another assay, the system named is Botrytis cinerea. The experiment in a line: Test E: tomato Botrytis, preventive spray on tomato seedlings. In short, it runs like this: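 Preventive test: seedlings sprayed to run-off with compound in acetone/water (50/50) plus 250 ppm PEG400, inoculated one day later with B. cinerea spores. Held 48 h saturated at 20° C, then 3 days at 24° C; disease control scored visually from 0 to 100 versus controls.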

In a further assay the test system is Alternaria solani. Kind of assay: Test F: tomato early blight, preventive spray on tomato seedlings. In short, it runs like this: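 Preventive test: one day after the compound spray, seedlings were inoculated with A. solani, incubated saturated at 27 °C for 48 h, then kept at 20 °C for 3 days. Test suspensions contained acetone/water 50/50 with 250 ppm PEG400 surfactant. Visual ratings run from 0 (no control) to 100 (full control).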

As for `CCc1nn(C)c(Nc2c(F)cc(F)cc2[N+](=O)[O-])c1-c1ccc(F)cc1Cl` [compound 95], in the assay with Septoria tritici, the “Test A disease control rating” value was determined as 100%. Moreover, the “Test B disease control rating” value in assay [1] was found to be 100%. Further, in assay [2], the “Test C disease control rating” value turned out to be 100%. Moreover, in the assay with Phakopsora pachyrhizi, the “Test D disease control rating” value is 84%. For the same compound, the “Test E disease control rating” value with Botrytis cinerea turned out to be 99%. Further, the “Test F disease control rating” value with Alternaria solani is 99%.

As for `Cc1cccc([N+](=O)[O-])c1Nc1c(-c2ccc(F)cc2Cl)c(C)nn1C` [compound 117], the “Test A disease control rating” value in the assay with Septoria tritici turned out to be 99%. Further, the “Test B disease control rating” value in assay [1] is recorded as 100%. Also, the “Test C disease control rating” value in assay [2] is on record as 95%. In the assay with Phakopsora pachyrhizi, the “Test D disease control rating” value worked out at 0%. The “Test E disease control rating” value in the assay on Botrytis cinerea worked out at 99%. For the same compound, the “Test F disease control rating” value in the assay with Alternaria solani is recorded as 76%.

Regarding `Cc1nn(C)c(Nc2ccccc2[N+](=O)[O-])c1-c1c(F)cccc1F` [compound 135], in the assay with Septoria tritici, the “Test A disease control rating” value is recorded as 100%. In addition, in assay [1], the “Test B disease control rating” value amounted to 68%. Further, the “Test C disease control rating” value in assay [2] was determined as 93%. Besides, in the assay on Phakopsora pachyrhizi, the “Test D disease control rating” value is reported as 0%. Also, the “Test E disease control rating” value in the assay with Botrytis cinerea is listed as 99%. The “Test F disease control rating” value in the assay on Alternaria solani is 0%.

`Cc1cc(F)c(Nc2c(-c3ccc(F)cc3Br)c(C)nn2C)c([N+](=O)[O-])c1` [compound 40]: in the assay on Septoria tritici, the “Test A disease control rating” value came out at 100%. Besides, the “Test B disease control rating” value in assay [1] was found to be 100%. For the same compound, the “Test C disease control rating” value in assay [2] is reported as 100%. The “Test D disease control rating” value in the assay with Phakopsora pachyrhizi was 82%. In addition, the “Test E disease control rating” value in the assay on Botrytis cinerea is given as 98%. In addition, the “Test F disease control rating” value with Alternaria solani is 100%.

Take `Cc1nn(C)c(Nc2c(Cl)cc(Cl)cc2[N+](=O)[O-])c1-c1c(F)cccc1F` [compound 96]: in the assay with Septoria tritici, the “Test A disease control rating” value is 100%. Also, the “Test B disease control rating” value in assay [1] was found to be 95%. The “Test C disease control rating” value in assay [2] is 0%. Moreover, the “Test D disease control rating” value in the assay on Phakopsora pachyrhizi was determined as 0%. In the assay on Botrytis cinerea, the “Test E disease control rating” value turned out to be 80%. In the assay on Alternaria solani, the “Test F disease control rating” value was 0%.

On to `Cc1nn(C)c(Nc2c(F)cc(F)cc2[N+](=O)[O-])c1-c1ccc(F)cc1Cl` [compound 109], for which, in the assay with Septoria tritici, the “Test A disease control rating” value stood at 100%. In addition, the “Test B disease control rating” value in assay [1] was determined as 100%. Moreover, the “Test C disease control rating” value in assay [2] worked out at 100%. The “Test D disease control rating” value in the assay with Phakopsora pachyrhizi stood at 93%. Besides, the “Test E disease control rating” value in the assay on Botrytis cinerea is 100%. Besides, the “Test F disease control rating” value in the assay with Alternaria solani came to 99%.

Turning to `Cc1cc(Cl)c(Nc2c(-c3ccc(F)cc3F)c(C)nn2C)c([N+](=O)[O-])c1` [compound 15], the “Test A disease control rating” value in the assay on Septoria tritici turned out to be 100%. Also, the “Test B disease control rating” value in assay [1] is recorded as 100%. In addition, in assay [2], the “Test C disease control rating” value is reported as 98%. The “Test D disease control rating” value with Phakopsora pachyrhizi worked out at 61%. Also, in the assay on Botrytis cinerea, the “Test E disease control rating” value came out at 99%. Also, in the assay on Alternaria solani, the “Test F disease control rating” value is reported as 53%.

Take `Cc1nn(C)c(Nc2ccc(Cl)cc2[N+](=O)[O-])c1-c1ccc(F)cc1F` [compound 78]: in the assay with Septoria tritici, the “Test A disease control rating” value came to 100%. In assay [1], the “Test B disease control rating” value is listed as 89%. Further, in assay [2], the “Test C disease control rating” value worked out at 95%. For the same compound, the “Test D disease control rating” value with Phakopsora pachyrhizi was found to be 0%. The “Test E disease control rating” value in the assay with Botrytis cinerea was found to be 68%. The “Test F disease control rating” value in the assay with Alternaria solani is on record as 0%.

Consider `COc1cc(F)c(-c2c(C)nn(C)c2Nc2c(F)cccc2[N+](=O)[O-])c(F)c1` [compound 70], for which the “Test A disease control rating” value in the assay on Septoria tritici stood at 100%. Also, the “Test B disease control rating” value in assay [1] turned out to be 100%. In addition, the “Test C disease control rating” value in assay [2] came out at 99%. The “Test D disease control rating” value in the assay with Phakopsora pachyrhizi amounted to 84%. Further, the “Test E disease control rating” value in the assay on Botrytis cinerea is given as 99%. Further, the “Test F disease control rating” value with Alternaria solani is recorded as 99%.

For the compound `COc1cc(Cl)c(Nc2c(-c3ccc(F)cc3Cl)c(C)nn2C)c([N+](=O)[O-])c1` [compound 80], in the assay on Septoria tritici, the “Test A disease control rating” value was 100%. In assay [1], the “Test B disease control rating” value worked out at 100%. Besides, the “Test C disease control rating” value in assay [2] was found to be 97%. Further, in the assay on Phakopsora pachyrhizi, the “Test D disease control rating” value was 50%. The “Test E disease control rating” value in the assay on Botrytis cinerea is on record as 95%. For the same compound, the “Test F disease control rating” value with Alternaria solani was 98%.

`Cc1cccc([N+](=O)[O-])c1Nc1c(-c2ccc(Cl)cc2Cl)c(C)nn1C` [compound 144]: the “Test A disease control rating” value in the assay on Septoria tritici stood at 100%. Moreover, the “Test B disease control rating” value in assay [1] is reported as 68%. In addition, the “Test C disease control rating” value in assay [2] stood at 35%. In the assay with Phakopsora pachyrhizi, the “Test D disease control rating” value stood at 69%. For the same compound, in the assay on Botrytis cinerea, the “Test E disease control rating” value was 0%. Further, in the assay with Alternaria solani, the “Test F disease control rating” value came out at 0%.

For the compound `CCc1nn(C)c(Nc2ccc(C)cc2[N+](=O)[O-])c1-c1ccc(F)cc1Cl` [compound 174], the “Test A disease control rating” value in the assay on Septoria tritici is 100%. In assay [1], the “Test B disease control rating” value is reported as 95%. In addition, the “Test C disease control rating” value in assay [2] was 92%. For the same compound, the “Test D disease control rating” value with Phakopsora pachyrhizi came out at 0%. Besides, in the assay with Botrytis cinerea, the “Test E disease control rating” value is 99%. Also, the “Test F disease control rating” value in the assay with Alternaria solani was found to be 39%.

Regarding `Cc1nn(C)c(Nc2c(Br)cccc2[N+](=O)[O-])c1-c1ccc(F)cc1Cl` [compound 110], the “Test A disease control rating” value with Septoria tritici was 100%. Further, the “Test B disease control rating” value in assay [1] came out at 98%. In addition, in assay [2], the “Test C disease control rating” value turned out to be 56%. Moreover, in the assay on Phakopsora pachyrhizi, the “Test D disease control rating” value is given as 73%. For the same compound, in the assay with Botrytis cinerea, the “Test E disease control rating” value is 99%. The “Test F disease control rating” value in the assay with Alternaria solani stood at 0%.

Consider `COc1ccc(-c2c(C)nn(C)c2Nc2c(F)cc(Br)cc2[N+](=O)[O-])c(Cl)c1` [compound 182], for which the “Test A disease control rating” value in the assay on Septoria tritici was 100%. In assay [1], the “Test B disease control rating” value came out at 99%. Also, the “Test C disease control rating” value in assay [2] stood at 76%. The “Test D disease control rating” value in the assay on Phakopsora pachyrhizi came to 0%. Besides, in the assay on Botrytis cinerea, the “Test E disease control rating” value is given as 100%. For the same compound, the “Test F disease control rating” value in the assay on Alternaria solani is reported as 99%.

In the case of `Cc1nn(C)c(Nc2ccccc2[N+](=O)[O-])c1-c1c(F)cccc1Cl` [compound 136], the “Test A disease control rating” value in the assay with Septoria tritici amounted to 100%. For the same compound, the “Test B disease control rating” value in assay [1] amounted to 80%. In addition, the “Test C disease control rating” value in assay [2] was 88%. The “Test D disease control rating” value in the assay on Phakopsora pachyrhizi was determined as 0%. Besides, in the assay on Botrytis cinerea, the “Test E disease control rating” value is on record as 99%. In the assay with Alternaria solani, the “Test F disease control rating” value turned out to be 0%.

Take `Cc1nn(C)c(Nc2c(Br)cccc2[N+](=O)[O-])c1-c1ccc(C#N)cc1Cl` [compound 125]: the “Test A disease control rating” value in the assay with Septoria tritici was 100%. Moreover, the “Test B disease control rating” value in assay [1] amounted to 96%. In addition, the “Test C disease control rating” value in assay [2] was found to be 0%. In the assay with Phakopsora pachyrhizi, the “Test D disease control rating” value stood at 0%. Besides, the “Test E disease control rating” value in the assay on Botrytis cinerea was 99%. Further, the “Test F disease control rating” value in the assay with Alternaria solani was 9%.

On to `Cc1nn(C)c(Nc2ccc(Br)cc2[N+](=O)[O-])c1-c1ccc(F)cc1Cl` [compound 91], for which the “Test A disease control rating” value in the assay with Septoria tritici was found to be 99%. Besides, in assay [1], the “Test B disease control rating” value is given as 88%. Also, the “Test C disease control rating” value in assay [2] amounted to 84%. Further, in the assay on Phakopsora pachyrhizi, the “Test D disease control rating” value is on record as 0%. Also, the “Test E disease control rating” value in the assay with Botrytis cinerea is listed as 99%. Further, the “Test F disease control rating” value in the assay on Alternaria solani is 26%.

With `COc1cc(F)c(-c2c(C)nn(C)c2Nc2ccc(F)cc2[N+](=O)[O-])c(F)c1` [compound 83], the “Test A disease control rating” value in the assay on Septoria tritici worked out at 99%. Further, the “Test B disease control rating” value in assay [1] came out at 91%. For the same compound, in assay [2], the “Test C disease control rating” value turned out to be 99%. Also, the “Test D disease control rating” value in the assay with Phakopsora pachyrhizi is on record as 0%. In addition, in the assay on Botrytis cinerea, the “Test E disease control rating” value was 98%. Besides, the “Test F disease control rating” value in the assay with Alternaria solani was determined as 99%.
